Literature values as cited in article PMC10338470, “Phase 1 study of GSK3368715, a type I PRMT inhibitor, in patients with advanced solid tumors” (British Journal of Cancer, 2023).

System: adenoid cystic carcinoma
Set-up: method as in doi:10.1016/j.annonc.2020.08.651
Details: patients with adenoid cystic carcinoma ref [18]; cited from earlier work

Q: For `Nc1nc2cc(CC[C@H]3C[C@@H](n4ccc5c(N)ncnc54)[C@H](O)[C@@H]3O)ccc2cc1Br` [JNJ64619178], which Partial response rate is on record?
A: 13%
